Source: article PMC3187749, “Discovery of Diverse Small Molecule Chemotypes with Cell-Based PKD1 Inhibitory Activity” (PLoS ONE, 2011)
Where two headings read alike, the source gives them in different places.

Key:
recombinant human PKD1 [1] = biological target: T1, recombinant human PKD1 (Homo sapiens, UniProt Q15139); conditions: cited from earlier work
T1 construct: His; purchased Millipore (Billerica, MA)
T1 sequence (Q15139 1-912): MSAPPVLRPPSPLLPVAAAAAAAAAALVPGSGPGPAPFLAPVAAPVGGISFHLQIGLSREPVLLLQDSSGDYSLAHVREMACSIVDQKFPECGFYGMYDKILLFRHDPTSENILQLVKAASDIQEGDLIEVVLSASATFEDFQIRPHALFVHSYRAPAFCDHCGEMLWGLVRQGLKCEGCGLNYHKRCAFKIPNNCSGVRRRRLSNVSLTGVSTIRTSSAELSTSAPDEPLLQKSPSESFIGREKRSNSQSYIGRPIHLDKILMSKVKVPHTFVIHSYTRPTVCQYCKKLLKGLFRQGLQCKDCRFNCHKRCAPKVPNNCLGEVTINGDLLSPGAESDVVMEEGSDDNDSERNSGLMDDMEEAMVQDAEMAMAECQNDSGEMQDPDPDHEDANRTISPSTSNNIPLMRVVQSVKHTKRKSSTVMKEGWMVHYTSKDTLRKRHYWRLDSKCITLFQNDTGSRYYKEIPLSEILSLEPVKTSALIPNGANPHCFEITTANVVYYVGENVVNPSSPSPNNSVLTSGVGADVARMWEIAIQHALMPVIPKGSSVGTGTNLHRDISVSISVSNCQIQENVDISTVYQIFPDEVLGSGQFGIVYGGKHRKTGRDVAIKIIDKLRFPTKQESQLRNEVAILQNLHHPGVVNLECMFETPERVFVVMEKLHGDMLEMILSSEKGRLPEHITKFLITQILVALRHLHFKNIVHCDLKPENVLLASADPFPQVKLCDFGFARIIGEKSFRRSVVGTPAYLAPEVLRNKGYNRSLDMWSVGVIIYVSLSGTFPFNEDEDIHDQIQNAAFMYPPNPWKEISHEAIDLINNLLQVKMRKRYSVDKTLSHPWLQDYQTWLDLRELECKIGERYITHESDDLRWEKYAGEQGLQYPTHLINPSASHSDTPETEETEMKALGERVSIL

recombinant human PKD1 [2] = biological target: T1, recombinant human PKD1; assay: In vitro radiometric PKD1 kinase assay; format: biochemical
Description: Kinase reactions were initiated with the addition of ATP (50 µM ATP, 1.0 µCi γ-^33P-ATP; Perkin Elmer, Boston, MA) and incubated for 20 min at 30°C. Twenty-five µL of the reaction was spotted onto Whatman P81 filter paper (Whatman Inc., Clifton, NJ). Filter papers were then washed three times in 0.5% phosphoric acid, air-dried, and counted using an LS6500 multi-purpose scintillation counter (Beckman Coulter, Fullerton, CA). IC50 determinations were performed using GraphPad Prism software 5.0. Radiometric PKD2 and PKD3 in vitro kinase assays were performed as previously described.

[3] = biological target: T2, endogenous PKD1 (Ser916 phosphorylation) in LNCaP prostate cancer cells (Homo sapiens, UniProt Q15139); assay: Western blot of PMA-induced phospho-Ser916-PKD1 in LNCaP cells; format: cell-based; conditions: LNCaP cells; for inhibition at 50 µM: read-out: Inhibition of phosphorylation of Ser916-PKD1; for Concentration dependence of inhibition of PMA-induced endogenous PKD1 activity: Western blot
T2 construct: phosphorylation of endogenously expressed PKD1 Ser^916; endogenous in cells; host or cells: LNCaP prostate cancer cells
T2 sequence (Q15139 1-912): T1 sequence (Q15139 1-912)
Description: Briefly, prostate cancer cells (LNCaP) were exposed to test compounds. Cells were lysed in buffer (200 mM Tris-HCl, pH 7.4, 100 µM 4-(2-aminoethyl) benzenesulfonyl fluoride, 1 mM EGTA, and 1% Triton X-100) and cell lysates were subjected to SDS-PAGE then electrotransferred to nitrocellulose membranes. Membranes were blocked with 5% nonfat milk in Tris-buffered saline. Membranes were probed with a primary antibody then followed by a secondary anti-mouse or anti-rabbit secondary antibody conjugated to horseradish peroxidase (1∶1000, Bio-Rad). Bands were visualized by the enhanced chemiluminescence Western blotting detection system (Amersham Biosciences). The primary antibodies included p-S916-PKD1 antibody (Millipore) and GAPDH (Enzo Life Sciences, Plymouth Meeting, PA).
[…] Whole cell lysates were immunoblotted for phosphorylated Ser^916-PKD1 with GAPDH serving as a loading control.

recombinant human PKD1 [4] = biological target: T1, recombinant human PKD1; assay: ATP competition studies (radiometric PKD1 assay, Michaelis-Menten/Lineweaver-Burk); format: biochemical; conditions: PKD1, ATP 12.5–1000 µM
Description: For ATP competition studies, recombinant human PKD1 (1 ng/µL) and Syntide-2 substrate peptide (200 ng/µl) in kinase buffer were incubated with a concentration range of test compound. Kinase reactions were initiated with a concentration range of cold ATP (12.5–1000 µM) supplemented with 1.0 µCi γ-^33P-ATP (Perkin Elmer) and processed as described above. Enzyme inhibition was analyzed and visualized using the Michaelis-Menten and Lineweaver-Burk functions of GraphPad Prism 5.0.

[5] = tested on: T3, recombinant human protein kinase D1 (PKD1); assay: IMAP-based PKD1 FP high throughput screening assay; format: biochemical; conditions: LOPAC screen, 10 µM, duplicate
T3 construct: His; purchased Millipore (Billerica, MA)
Description: An HTS IMAP-based PKD1 FP assay was developed and used to screen the PMLSC library to identify primary active compounds as previously described, [19]. In brief, the basis for the in vitro homogeneous IMAP PKD1 FP assay is the interaction of nanoparticles with covalent phosphorylated moieties generated when active PKD1 enzyme phosphorylates small, fluorescently labeled substrate peptides. The PKD1 kinase reactions were assembled stepwise by the addition of 3× substrate/ATP (300 nM/60 µM), compound and PKD1 enzyme (0.18 units/mL). Positive (MAX) and negative (MIN) control kinase reactions contained DMSO (1%) and Gö6976 (1 µM) or H-89 (100 µM) in 1% DMSO (final concentrations), respectively. All assay plates were setup in a standard 384-well configuration as previously described and all reagents were prepared in kinase reaction buffer. Kinase reactions were incubated for 90 min at room temperature and then were stopped with the addition of 18 µL of IMAP binding reagents (1∶400) in 1× binding buffer A (proprietary composition, Molecular Devices). These nanoparticles associate with substrate peptide phospho groups creating a larger phosphosubstrate–nanoparticle complex. The phosphosubstrate–nanoparticle binding can be quantified and is expressed as millipolarization (mP) units. […] Assay plates were centrifuged at 50 g for 1 min, incubated at room temperature for 2 hr and FP data were collected on a Molecular Devices SpectraMax M5 (excitation A485/emission A525). This assay was also used in secondary concentration response studies to initially determine IC50 concentrations of compounds. IC50 determinations were performed using GraphPad Prism software 5.0 (La Jolla, CA).
A PKD1 IMAP FP assay was developed and optimized to identify small molecule inhibitors of PKD1 kinase activity. Using this assay system, we screened the LOPAC and PMLSC compound sets (196,425 total compounds) for novel PKD inhibitory chemotypes. […] For the LOPAC screen each compound was evaluated in duplicate at a single concentration (10 µM). […]

AKT = assay: IMAP-based AKT counter screen; format: biochemical; conditions: concentrations up to 50 µM
From the text: (§1) It was also gratifying that, in general, our novel cell active PKD1 inhibitors appeared to be less promiscuous than PKD1 inhibitors having minimal to no cellular PKD1 inhibitory activity (Table 1). For example, CIDs 755673 and 1893668 display additional confirmed activity in six and seven, respectively, PubChem bioassays while CID 2011756 has confirmed activity in only one additional PubChem bioassay. […] In contrast, the remaining chemotypes registered as confirmed actives in 2–43 additional bioassays (Table 1). Additional chemical similarity searching, focusing on our four novel cell-active PKD1 inhibitory chemotypes, using MetaDrug also supports a comparative lack of promiscuity of these compounds.

CDK7 = assay: IMAP-based CDK7 counter screen; format: biochemical; conditions: concentrations up to 50 µM
From the text: as §1

PLK1 = assay: IMAP-based PLK1 counter screen; format: biochemical; conditions: concentrations up to 50 µM
From the text: as §1

[6] = radiometric PKD1 kinase assay, mean ± range or SD of 2–4 independent experiments, read-out: In vitro PKD1 IC50
[7] = 50 µM compound 45 min, then PMA 10 nM 20 min

| Compound | IC50 (recombinant human PKD1 [2]; [6]) [nM] | Inhibition of phosphorylation of Ser916-PKD1 (in words) [3, 7] | Mechanism of Action (with respect to ATP) (recombinant human PKD1 [4]) | further results |
| --- | --- | --- | --- | --- |
| NC(=O)c1cc(-c2ccnc(NC3CCCCC3)c2)nc(N2CCNCC2)c1 [BKPDi] |  |  |  | Mechanism of Action (with respect to ATP) (recombinant human PKD1 [1]; known mechanism of action of the PKD inhibitor BKPDi, listed as BPKDi): ATP competitive |
| NC(N)=NC(=O)c1nc(Cl)c(N)nc1N [CID 16230, amiloride chloride, reference compound] | 2100 ± 150 | little or no inhibition |  | inhibition at 50 µM [3, 7]: < 50% |
| CC1(C)Oc2ccc3ccc(=O)oc3c2-c2cn[nH]c21 [CID 646236] | 1100 ± 100 |  | ATP competitive |  |
| O=C1c2ccccc2-c2onc3ccc(NCCCn4ccnc4)c1c23 [CID 663844] | 4800 ± 600 | little or no inhibition |  |  |
| O=C1NCCCc2c1oc1ccc(O)cc21 [CID 755673] |  | confirmed as a cell active PKD1 inhibitor |  | Concentration dependence of inhibition of PMA-induced endogenous PKD1 activity [3]: concentration-dependent inhibition; Mechanism of Action (with respect to ATP) (recombinant human PKD1 [1]; previously determined): Non-ATP competitive |
| CCN1/C(=C/C(C)=O)Sc2ccc(OC)cc21 [CID 1893668, (1Z)-1-(3-ethyl-5-methoxy-1,3-benzothiazol-2-ylidene)propan-2-one, reference compound] | 1700 ± 300 |  |  | inhibition at 50 µM [3, 7]: > 50%; EC50 ([3]; PMA stimulation, n = 3, read-out: Cellular EC50 (phospho-Ser916-PKD1)): 52000 ± 14000 nM; Concentration dependence of inhibition of PMA-induced endogenous PKD1 activity [3]: concentration-dependent inhibition |
| CCC1=NNc2cccc3c(OC)ccc1c23 [CID 2876479] | 2200 ± 1800 | some cellular inhibition | ATP competitive |  |
| CC1Cc2ccccc2N1c1ncnc(N)c1[N+](=O)[O-] (stereo not shown) [CID 2958734] | 6100 ± 200 | little or no inhibition | ATP competitive |  |
| Clc1cncc(Cl)c1NNc1ccncc1 [CID 4438738] | 3300 ± 100 |  | ATP competitive |  |
| Nc1nc2ccc([N+](=O)[O-])c(N)c2s1 [CID 5086667] |  | some cellular inhibition | ATP-competitive inhibitor | Mechanism of Action (with respect to ATP) (recombinant human PKD1 [4]; listed as 5086667): ATP competitive |
| NC(=O)c1cn([C@@H]2O[C@H](CO)[C@@H](O)[C@H]2O)c2ncnc(N)c12 [CID 9549170, sangivamycin, reference compound] |  |  | ATP competitive | IC50 (recombinant human PKD1 [2]): 400 ± 300 nM |
| CC1CNCCN1S(=O)(=O)c1cccc2cnccc12 (stereo not shown) [H7] |  |  |  | Inhibition of control signal (primary active) [5]: ≥ 50% |
| CNCCNS(=O)(=O)c1cccc2cnccc12 [H8] |  |  |  | Inhibition of control signal (primary active) [5]: ≥ 50% |
| O=S(=O)(NCCNC/C=C/c1ccc(Br)cc1)c1cccc2cnccc12 [H89] |  |  |  | Inhibition of control signal (primary active) [5]: ≥ 50% |
| (6Z)-6-[4-(3-aminopropylamino)-6-methyl-1H-pyrimidin-2-ylidene]cyclohexa-2,4-dien-1-one [CID 5389142] |  |  | ATP competitive | AKT kinase inhibition (AKT): no kinase inhibition; CDK7 kinase inhibition (CDK7): no kinase inhibition; Inhibition of phosphorylation of Ser916-PKD1 [3, 7]: greater than 50%; Concentration dependence of inhibition of PMA-induced endogenous PKD1 activity [3]: concentration-dependent inhibition; PLK1 kinase inhibition (PLK1): no kinase inhibition |
